{"source": "patent US20080280920A1", "about": "“Plasminogen Activator Inhibitor-1 Inhibitors” (priority 2005, published 2008)", "key": {"UO-31": {"system": "UO-31", "test": "NCI anticancer screen, UO-31", "format": "cell-based, human", "settings": "Homo sapiens; UO-31, Renal, 48 h"}, "K-562": {"system": "K-562", "test": "NCI anticancer screen, K-562", "format": "cell-based, human", "settings": "Homo sapiens, K562; K-562, Leukemia, 48 h"}, "OVCAR-8": {"system": "OVCAR-8", "test": "NCI anticancer screen, OVCAR-8", "format": "cell-based, human", "settings": "Homo sapiens; OVCAR-8, Ovarian, 48 h"}, "SW-620": {"system": "SW-620", "test": "NCI anticancer screen, SW-620", "format": "cell-based, human", "settings": "Homo sapiens; SW-620, Colon, 48 h"}, "NCI-H460": {"system": "NCI-H460", "test": "NCI anticancer screen, NCI-H460", "format": "cell-based, human", "settings": "Homo sapiens; NCI-H460, Non-Small Cell Lung, 48 h"}, "U251": {"system": "U251", "test": "NCI anticancer screen, U251", "format": "cell-based, human", "settings": "Homo sapiens, U-251; U251, CNS, 48 h"}, "SK-MEL-2": {"system": "SK-MEL-2", "test": "NCI anticancer screen, SK-MEL-2", "format": "cell-based, human", "settings": "Homo sapiens; SK-MEL-2, Melanoma, 48 h"}, "SNB-75": {"system": "SNB-75", "test": "NCI anticancer screen, SNB-75", "format": "cell-based, human", "settings": "Homo sapiens; SNB-75, CNS, 48 h"}, "A498": {"system": "A498", "test": "NCI anticancer screen, A498", "format": "cell-based, human", "settings": "Homo sapiens; A498, Renal, 48 h"}, "SK-MEL-5": {"system": "SK-MEL-5", "test": "NCI anticancer screen, SK-MEL-5", "format": "cell-based, human", "settings": "Homo sapiens; SK-MEL-5, Melanoma, 48 h"}, "NCI-H23": {"system": "NCI-H23", "test": "NCI anticancer screen, NCI-H23", "format": "cell-based, human", "settings": "Homo sapiens; NCI-H23, Non-Small Cell Lung, 48 h"}, "SN12C": {"system": "SN12C", "test": "NCI anticancer screen, SN12C", "format": "cell-based, human", "settings": "Homo sapiens, 48 h, Renal"}, "MDA-MB-435": {"system": "MDA-MB-435", "test": "NCI anticancer screen, MDA-MB-435", "format": "cell-based, human", "settings": "Homo sapiens; MDA-MB-435, Breast, 48 h"}, "KM12": {"system": "KM12", "test": "NCI anticancer screen, KM12", "format": "cell-based, human", "settings": "Homo sapiens; KM12, Colon, 48 h"}, "HCT-116": {"system": "HCT-116", "test": "NCI anticancer screen, HCT-116", "format": "cell-based, human", "settings": "Homo sapiens; HCT-116, Colon, 48 h"}, "SF-295": {"system": "SF-295", "test": "NCI anticancer screen, SF-295", "format": "cell-based, human", "settings": "Homo sapiens; SF-295, CNS, 48 h"}, "NCI-H522": {"system": "NCI-H522", "test": "NCI anticancer screen, NCI-H522", "format": "cell-based, human", "settings": "Homo sapiens; NCI-H522, Non-Small Cell Lung, 48 h"}, "MCF7": {"system": "MCF7", "test": "NCI anticancer screen, MCF7", "format": "cell-based, human", "settings": "Homo sapiens; MCF7, Breast, 48 h"}, "TK-10": {"system": "TK-10", "test": "NCI anticancer screen, TK-10", "format": "cell-based, human", "settings": "Homo sapiens; TK-10, Renal, 48 h"}, "DU-145": {"system": "DU-145", "test": "NCI anticancer screen, DU-145", "format": "cell-based, human", "settings": "Homo sapiens; DU-145, Prostate, 48 h"}, "MALME-3M": {"system": "MALME-3M", "test": "NCI anticancer screen, MALME-3M", "format": "cell-based, human", "settings": "Homo sapiens, Melanoma, 48 h"}, "OVCAR-3": {"system": "OVCAR-3", "test": "NCI anticancer screen, OVCAR-3", "format": "cell-based, human", "settings": "Homo sapiens; OVCAR-3, Ovarian, 48 h"}, "IGR-OV1": {"system": "IGR-OV1", "test": "NCI anticancer screen, IGR-OV1", "format": "cell-based, human", "settings": "Homo sapiens, IGROV-1; IGR-OV1, Ovarian, 48 h"}, "EKVX": {"system": "EKVX", "test": "NCI anticancer screen, EKVX", "format": "cell-based, human", "settings": "Homo sapiens, Non-Small Cell Lung, 48 h"}, "PC-3": {"system": "PC-3", "test": "NCI anticancer screen, PC-3", "format": "cell-based, human", "settings": "Homo sapiens; PC-3, Prostate, 48 h"}, "[1]": {"system": "60 different human cancer cell lines", "test": "NCI in vitro anticancer screen (whole panel)", "format": "cell-based", "settings": "NCI screen, 48 h"}, "CAKI-1": {"system": "CAKI-1", "test": "NCI anticancer screen, CAKI-1", "format": "cell-based, human", "settings": "Homo sapiens; CAKI-1, Renal, 48 h"}, "NCI-H322M": {"system": "NCI-H322M", "test": "NCI anticancer screen, NCI-H322M", "format": "cell-based, human", "settings": "Homo sapiens, Non-Small Cell Lung, 48 h"}, "NCI/ADR-RES": {"system": "NCI/ADR-RES", "test": "NCI anticancer screen, NCI/ADR-RES", "format": "cell-based, human", "settings": "Homo sapiens, Breast, 48 h"}, "NCI-H226": {"system": "NCI-H226", "test": "NCI anticancer screen, NCI-H226", "format": "cell-based, human", "settings": "Homo sapiens; NCI-H226, Non-Small Cell Lung, 48 h"}, "MDA-MB-231/ATCC": {"system": "MDA-MB-231/ATCC", "test": "NCI anticancer screen, MDA-MB-231/ATCC", "format": "cell-based, human", "settings": "Homo sapiens, Breast, 48 h"}, "OVCAR-5": {"system": "OVCAR-5", "test": "NCI anticancer screen, OVCAR-5", "format": "cell-based, human", "settings": "Homo sapiens; OVCAR-5, Ovarian, 48 h"}, "T-47D": {"system": "T-47D", "test": "NCI anticancer screen, T-47D", "format": "cell-based, human", "settings": "Homo sapiens, T47D, Breast, 48 h"}, "MOLT-4": {"system": "MOLT-4", "test": "NCI anticancer screen, MOLT-4", "format": "cell-based, human", "settings": "Homo sapiens; MOLT-4, Leukemia, 48 h"}}, "data": [{"smiles": "CCOC(=O)[C@H](Cc1ccccc1)NCc1cc(CN2CCN(c3ccccn3)CC2)c(O)c(OC)c1", "note": "[Compound Q012147T]", "values": [{"measurement": "GI50", "setting": "UO-31", "result": 94.1, "unit": "µM"}, {"measurement": "GI50", "setting": "K-562", "result": 49.3, "unit": "µM"}, {"measurement": "GI50", "setting": "OVCAR-8", "result": "> 100", "unit": "µM"}, {"measurement": "GI50", "setting": "SW-620", "result": "> 100", "unit": "µM"}, {"measurement": "GI50", "setting": "NCI-H460", "result": 60.6, "unit": "µM"}, {"measurement": "GI50", "setting": "U251", "result": 61.9, "unit": "µM"}, {"measurement": "GI50", "setting": "SK-MEL-2", "result": "> 100", "unit": "µM"}, {"measurement": "GI50", "setting": "SNB-75", "result": 56.6, "unit": "µM"}, {"measurement": "GI50", "setting": "A498", "result": "> 100", "unit": "µM"}, {"measurement": "GI50", "setting": "SK-MEL-5", "result": 18.7, "unit": "µM"}, {"measurement": "GI50", "setting": "NCI-H23", "result": 55.9, "unit": "µM"}, {"measurement": "GI50", "setting": "SN12C", "result": "> 100", "unit": "µM"}, {"measurement": "GI50", "setting": "MDA-MB-435", "result": 83.2, "unit": "µM"}, {"measurement": "GI50", "setting": "KM12", "result": "> 100", "unit": "µM"}, {"measurement": "GI50", "setting": "HCT-116", "result": 34.4, "unit": "µM"}, {"measurement": "GI50", "setting": "SF-295", "result": "> 100", "unit": "µM"}, {"measurement": "GI50", "setting": "NCI-H522", "result": 76.3, "unit": "µM"}, {"measurement": "GI50", "setting": "MCF7", "result": 88.8, "unit": "µM"}, {"measurement": "GI50", "setting": "TK-10", "result": 83, "unit": "µM"}, {"measurement": "GI50", "setting": "DU-145", "result": "> 100", "unit": "µM"}, {"measurement": "GI50", "setting": "MALME-3M", "result": 99.9, "unit": "µM"}, {"measurement": "GI50", "setting": "OVCAR-3", "result": 86.2, "unit": "µM"}, {"measurement": "GI50", "setting": "IGR-OV1", "result": "> 100", "unit": "µM"}, {"measurement": "GI50", "setting": "EKVX", "result": "> 100", "unit": "µM"}, {"measurement": "GI50", "setting": "PC-3", "result": 49.8, "unit": "µM"}, {"measurement": "growth and proliferation of human primary cancer cell-lines (in words)", "setting": "[1]", "result": "inhibited growth and proliferation"}, {"measurement": "GI50", "setting": "CAKI-1", "result": "> 100", "unit": "µM"}, {"measurement": "GI50", "setting": "NCI-H322M", "result": 49.4, "unit": "µM"}, {"measurement": "GI50", "setting": "NCI/ADR-RES", "result": "> 100", "unit": "µM"}, {"measurement": "GI50", "setting": "NCI-H226", "result": "> 100", "unit": "µM"}, {"measurement": "GI50", "setting": "MDA-MB-231/ATCC", "result": "> 100", "unit": "µM"}, {"measurement": "GI50", "setting": "OVCAR-5", "result": "> 100", "unit": "µM"}, {"measurement": "GI50", "setting": "T-47D", "result": 33.5, "unit": "µM"}, {"measurement": "GI50", "setting": "MOLT-4", "result": 3.13, "unit": "µM"}]}]}
